Reference: US9249129B2, “Morpholino substituted urea derivatives as mTOR inhibitors” (CELLZOME LIMITED, priority 2010, dated 2016)

How the values were obtained:
Experiment in all cases: kinobeads assay with mass spectrometry detection of kinases (kinase selectivity profile)
Type in all cases: binding
kinases (kinome) [1] = target: T1, kinases (kinome) (Homo sapiens, UniProt Q99640); conditions: MYT1 (Other), IPI00909627
T1 construct: determined in kinobeads assays with mass spectrometry detection of kinases as described previously; endogenous in cells; host or cells: cell lysate
T1 sequence (Q99640 1-499): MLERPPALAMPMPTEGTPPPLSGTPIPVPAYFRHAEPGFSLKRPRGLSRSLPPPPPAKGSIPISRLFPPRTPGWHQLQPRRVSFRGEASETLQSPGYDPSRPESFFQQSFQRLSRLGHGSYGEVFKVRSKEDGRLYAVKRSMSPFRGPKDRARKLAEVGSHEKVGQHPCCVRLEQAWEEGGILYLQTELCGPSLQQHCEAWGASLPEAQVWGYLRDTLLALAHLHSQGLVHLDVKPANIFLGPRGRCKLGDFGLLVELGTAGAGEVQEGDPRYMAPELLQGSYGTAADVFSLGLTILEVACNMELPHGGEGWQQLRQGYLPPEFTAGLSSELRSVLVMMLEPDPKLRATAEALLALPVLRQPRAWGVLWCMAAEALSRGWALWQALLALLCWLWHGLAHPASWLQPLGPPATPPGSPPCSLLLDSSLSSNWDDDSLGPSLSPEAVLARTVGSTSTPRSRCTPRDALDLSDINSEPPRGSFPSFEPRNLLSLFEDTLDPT
Source text: (§1) The protein kinase complement of the human genome (the kinome) was described previously (Manning et al., 2002. Science 298(5600):1912-1934). Sequence accession numbers are defined by the International Protein Index (IPI) (Kersey et al., 2004. Proteomics 4(7):1985-1988).

kinases (kinome) [2] = target: T2, kinases (kinome) (Homo sapiens, UniProt P49674); conditions: CK1e (CK1), IPI00027729
T2 construct: determined in kinobeads assays with mass spectrometry detection of kinases as described previously; endogenous in cells; host or cells: cell lysate
Source text: as §1

kinases (kinome) [3] = target: T3, kinases (kinome) (Homo sapiens, UniProt Q96GD4); conditions: AurB (Other), IPI00796914
T3 construct: determined in kinobeads assays with mass spectrometry detection of kinases as described previously; endogenous in cells; host or cells: cell lysate
Source text: as §1

kinases (kinome) [4] = target: T4, kinases (kinome) (Homo sapiens, UniProt P27361); conditions: Erk1 (CMGC), IPI00018195
T4 construct: determined in kinobeads assays with mass spectrometry detection of kinases as described previously; endogenous in cells; host or cells: cell lysate
Source text: as §1

kinases (kinome) [5] = target: T5, kinases (kinome) (Homo sapiens, UniProt Q8NI60); conditions: ADCK3 (Atypical), IPI00176469
T5 construct: determined in kinobeads assays with mass spectrometry detection of kinases as described previously; endogenous in cells; host or cells: cell lysate
Source text: as §1

kinases (kinome) [6] = target: T6, kinases (kinome) (Homo sapiens, UniProt Q13131); conditions: AMPKa1 (CAMK), IPI00410287
T6 construct: determined in kinobeads assays with mass spectrometry detection of kinases as described previously; endogenous in cells; host or cells: cell lysate
Source text: as §1

kinases (kinome) [7] = target: T7, kinases (kinome) (Homo sapiens, UniProt P28482); conditions: Erk2 (CMGC), IPI00003479
T7 construct: determined in kinobeads assays with mass spectrometry detection of kinases as described previously; endogenous in cells; host or cells: cell lysate
Source text: as §1

kinases (kinome) [8] = target: T8, kinases (kinome) (Homo sapiens, UniProt Q96RR4); conditions: CaMKK2 (Other), IPI00290239
T8 construct: determined in kinobeads assays with mass spectrometry detection of kinases as described previously; endogenous in cells; host or cells: cell lysate
Source text: as §1

kinases (kinome) [9] = target: T9, kinases (kinome) (Homo sapiens, UniProt P29597); conditions: TYK2 (TK), IPI00022353
T9 construct: determined in kinobeads assays with mass spectrometry detection of kinases as described previously; endogenous in cells; host or cells: cell lysate
Source text: as §1

kinases (kinome) [10] = target: T10, kinases (kinome) (Homo sapiens, UniProt P19784); conditions: CK2a2 (Other), IPI00020602
T10 construct: determined in kinobeads assays with mass spectrometry detection of kinases as described previously; endogenous in cells; host or cells: cell lysate
Source text: as §1

kinases (kinome) [11] = target: T11, kinases (kinome) (Homo sapiens, UniProt Q9UHD2); conditions: TBK1 (Other), IPI00293613
T11 construct: determined in kinobeads assays with mass spectrometry detection of kinases as described previously; endogenous in cells; host or cells: cell lysate
T11 sequence (Q9UHD2 1-729): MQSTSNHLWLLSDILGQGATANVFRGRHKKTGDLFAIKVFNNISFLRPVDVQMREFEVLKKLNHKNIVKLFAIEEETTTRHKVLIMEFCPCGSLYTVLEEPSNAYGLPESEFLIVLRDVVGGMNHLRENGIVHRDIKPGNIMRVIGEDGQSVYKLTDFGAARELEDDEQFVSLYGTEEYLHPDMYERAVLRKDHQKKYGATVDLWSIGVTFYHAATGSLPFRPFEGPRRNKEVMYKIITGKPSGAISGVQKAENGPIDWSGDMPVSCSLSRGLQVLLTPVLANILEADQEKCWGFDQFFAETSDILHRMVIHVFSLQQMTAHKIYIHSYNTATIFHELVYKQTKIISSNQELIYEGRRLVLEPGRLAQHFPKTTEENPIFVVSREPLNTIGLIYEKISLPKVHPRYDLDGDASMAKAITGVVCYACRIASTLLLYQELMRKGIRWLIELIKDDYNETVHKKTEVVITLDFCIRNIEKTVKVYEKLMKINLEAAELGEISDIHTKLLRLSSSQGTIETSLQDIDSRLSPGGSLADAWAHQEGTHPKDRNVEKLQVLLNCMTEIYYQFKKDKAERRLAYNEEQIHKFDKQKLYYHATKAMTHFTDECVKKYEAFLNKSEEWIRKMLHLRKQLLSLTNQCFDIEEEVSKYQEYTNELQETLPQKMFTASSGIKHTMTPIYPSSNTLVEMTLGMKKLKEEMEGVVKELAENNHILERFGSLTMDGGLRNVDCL
Source text: as §1

kinases (kinome) [12] = target: T12, kinases (kinome) (Homo sapiens, UniProt Q7KZI7); conditions: MARK2 (CAMK), IPI00555838
T12 construct: determined in kinobeads assays with mass spectrometry detection of kinases as described previously; endogenous in cells; host or cells: cell lysate
T12 sequence (Q7KZI7 whole entry): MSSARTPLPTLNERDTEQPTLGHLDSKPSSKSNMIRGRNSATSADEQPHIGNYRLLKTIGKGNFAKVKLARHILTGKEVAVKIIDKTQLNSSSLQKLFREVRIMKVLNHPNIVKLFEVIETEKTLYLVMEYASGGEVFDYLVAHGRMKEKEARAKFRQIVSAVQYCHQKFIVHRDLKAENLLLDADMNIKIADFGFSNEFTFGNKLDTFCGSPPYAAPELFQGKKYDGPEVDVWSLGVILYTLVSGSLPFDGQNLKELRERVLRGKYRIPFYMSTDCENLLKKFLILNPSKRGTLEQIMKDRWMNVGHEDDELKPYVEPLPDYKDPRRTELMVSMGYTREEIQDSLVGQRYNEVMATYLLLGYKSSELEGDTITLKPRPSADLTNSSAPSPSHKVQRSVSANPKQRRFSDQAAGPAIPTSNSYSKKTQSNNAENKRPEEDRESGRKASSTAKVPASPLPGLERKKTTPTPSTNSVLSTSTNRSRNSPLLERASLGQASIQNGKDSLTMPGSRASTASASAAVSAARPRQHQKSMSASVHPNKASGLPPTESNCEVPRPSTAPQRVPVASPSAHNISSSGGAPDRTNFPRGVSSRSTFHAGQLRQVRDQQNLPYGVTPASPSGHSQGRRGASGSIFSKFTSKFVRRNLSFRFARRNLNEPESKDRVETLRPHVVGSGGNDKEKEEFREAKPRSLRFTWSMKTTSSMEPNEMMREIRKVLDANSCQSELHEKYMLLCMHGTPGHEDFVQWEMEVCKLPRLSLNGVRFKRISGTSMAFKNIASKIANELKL
Source text: as §1

kinases (kinome) [13] = target: T13, kinases (kinome) (Homo sapiens, UniProt P07948); conditions: LYN (TK), IPI00298625
T13 construct: determined in kinobeads assays with mass spectrometry detection of kinases as described previously; endogenous in cells; host or cells: cell lysate
Source text: as §1

kinases (kinome) [14] = target: T14, kinases (kinome) (Homo sapiens, UniProt P43405); conditions: SYK (TK), IPI00018597
T14 construct: determined in kinobeads assays with mass spectrometry detection of kinases as described previously; endogenous in cells; host or cells: cell lysate
Source text: as §1

kinases (kinome) [15] = target: T15, kinases (kinome) (Homo sapiens, UniProt Q9HCP0); conditions: CK1g1 (CK1), IPI00791893
T15 construct: determined in kinobeads assays with mass spectrometry detection of kinases as described previously; endogenous in cells; host or cells: cell lysate
Source text: as §1

kinases (kinome) [16] = target: T16, kinases (kinome) (Homo sapiens, UniProt Q13315); conditions: ATM (Atypical), IPI00298306
T16 construct: determined in kinobeads assays with mass spectrometry detection of kinases as described previously; endogenous in cells; host or cells: cell lysate
T16 sequence (Q13315 whole entry): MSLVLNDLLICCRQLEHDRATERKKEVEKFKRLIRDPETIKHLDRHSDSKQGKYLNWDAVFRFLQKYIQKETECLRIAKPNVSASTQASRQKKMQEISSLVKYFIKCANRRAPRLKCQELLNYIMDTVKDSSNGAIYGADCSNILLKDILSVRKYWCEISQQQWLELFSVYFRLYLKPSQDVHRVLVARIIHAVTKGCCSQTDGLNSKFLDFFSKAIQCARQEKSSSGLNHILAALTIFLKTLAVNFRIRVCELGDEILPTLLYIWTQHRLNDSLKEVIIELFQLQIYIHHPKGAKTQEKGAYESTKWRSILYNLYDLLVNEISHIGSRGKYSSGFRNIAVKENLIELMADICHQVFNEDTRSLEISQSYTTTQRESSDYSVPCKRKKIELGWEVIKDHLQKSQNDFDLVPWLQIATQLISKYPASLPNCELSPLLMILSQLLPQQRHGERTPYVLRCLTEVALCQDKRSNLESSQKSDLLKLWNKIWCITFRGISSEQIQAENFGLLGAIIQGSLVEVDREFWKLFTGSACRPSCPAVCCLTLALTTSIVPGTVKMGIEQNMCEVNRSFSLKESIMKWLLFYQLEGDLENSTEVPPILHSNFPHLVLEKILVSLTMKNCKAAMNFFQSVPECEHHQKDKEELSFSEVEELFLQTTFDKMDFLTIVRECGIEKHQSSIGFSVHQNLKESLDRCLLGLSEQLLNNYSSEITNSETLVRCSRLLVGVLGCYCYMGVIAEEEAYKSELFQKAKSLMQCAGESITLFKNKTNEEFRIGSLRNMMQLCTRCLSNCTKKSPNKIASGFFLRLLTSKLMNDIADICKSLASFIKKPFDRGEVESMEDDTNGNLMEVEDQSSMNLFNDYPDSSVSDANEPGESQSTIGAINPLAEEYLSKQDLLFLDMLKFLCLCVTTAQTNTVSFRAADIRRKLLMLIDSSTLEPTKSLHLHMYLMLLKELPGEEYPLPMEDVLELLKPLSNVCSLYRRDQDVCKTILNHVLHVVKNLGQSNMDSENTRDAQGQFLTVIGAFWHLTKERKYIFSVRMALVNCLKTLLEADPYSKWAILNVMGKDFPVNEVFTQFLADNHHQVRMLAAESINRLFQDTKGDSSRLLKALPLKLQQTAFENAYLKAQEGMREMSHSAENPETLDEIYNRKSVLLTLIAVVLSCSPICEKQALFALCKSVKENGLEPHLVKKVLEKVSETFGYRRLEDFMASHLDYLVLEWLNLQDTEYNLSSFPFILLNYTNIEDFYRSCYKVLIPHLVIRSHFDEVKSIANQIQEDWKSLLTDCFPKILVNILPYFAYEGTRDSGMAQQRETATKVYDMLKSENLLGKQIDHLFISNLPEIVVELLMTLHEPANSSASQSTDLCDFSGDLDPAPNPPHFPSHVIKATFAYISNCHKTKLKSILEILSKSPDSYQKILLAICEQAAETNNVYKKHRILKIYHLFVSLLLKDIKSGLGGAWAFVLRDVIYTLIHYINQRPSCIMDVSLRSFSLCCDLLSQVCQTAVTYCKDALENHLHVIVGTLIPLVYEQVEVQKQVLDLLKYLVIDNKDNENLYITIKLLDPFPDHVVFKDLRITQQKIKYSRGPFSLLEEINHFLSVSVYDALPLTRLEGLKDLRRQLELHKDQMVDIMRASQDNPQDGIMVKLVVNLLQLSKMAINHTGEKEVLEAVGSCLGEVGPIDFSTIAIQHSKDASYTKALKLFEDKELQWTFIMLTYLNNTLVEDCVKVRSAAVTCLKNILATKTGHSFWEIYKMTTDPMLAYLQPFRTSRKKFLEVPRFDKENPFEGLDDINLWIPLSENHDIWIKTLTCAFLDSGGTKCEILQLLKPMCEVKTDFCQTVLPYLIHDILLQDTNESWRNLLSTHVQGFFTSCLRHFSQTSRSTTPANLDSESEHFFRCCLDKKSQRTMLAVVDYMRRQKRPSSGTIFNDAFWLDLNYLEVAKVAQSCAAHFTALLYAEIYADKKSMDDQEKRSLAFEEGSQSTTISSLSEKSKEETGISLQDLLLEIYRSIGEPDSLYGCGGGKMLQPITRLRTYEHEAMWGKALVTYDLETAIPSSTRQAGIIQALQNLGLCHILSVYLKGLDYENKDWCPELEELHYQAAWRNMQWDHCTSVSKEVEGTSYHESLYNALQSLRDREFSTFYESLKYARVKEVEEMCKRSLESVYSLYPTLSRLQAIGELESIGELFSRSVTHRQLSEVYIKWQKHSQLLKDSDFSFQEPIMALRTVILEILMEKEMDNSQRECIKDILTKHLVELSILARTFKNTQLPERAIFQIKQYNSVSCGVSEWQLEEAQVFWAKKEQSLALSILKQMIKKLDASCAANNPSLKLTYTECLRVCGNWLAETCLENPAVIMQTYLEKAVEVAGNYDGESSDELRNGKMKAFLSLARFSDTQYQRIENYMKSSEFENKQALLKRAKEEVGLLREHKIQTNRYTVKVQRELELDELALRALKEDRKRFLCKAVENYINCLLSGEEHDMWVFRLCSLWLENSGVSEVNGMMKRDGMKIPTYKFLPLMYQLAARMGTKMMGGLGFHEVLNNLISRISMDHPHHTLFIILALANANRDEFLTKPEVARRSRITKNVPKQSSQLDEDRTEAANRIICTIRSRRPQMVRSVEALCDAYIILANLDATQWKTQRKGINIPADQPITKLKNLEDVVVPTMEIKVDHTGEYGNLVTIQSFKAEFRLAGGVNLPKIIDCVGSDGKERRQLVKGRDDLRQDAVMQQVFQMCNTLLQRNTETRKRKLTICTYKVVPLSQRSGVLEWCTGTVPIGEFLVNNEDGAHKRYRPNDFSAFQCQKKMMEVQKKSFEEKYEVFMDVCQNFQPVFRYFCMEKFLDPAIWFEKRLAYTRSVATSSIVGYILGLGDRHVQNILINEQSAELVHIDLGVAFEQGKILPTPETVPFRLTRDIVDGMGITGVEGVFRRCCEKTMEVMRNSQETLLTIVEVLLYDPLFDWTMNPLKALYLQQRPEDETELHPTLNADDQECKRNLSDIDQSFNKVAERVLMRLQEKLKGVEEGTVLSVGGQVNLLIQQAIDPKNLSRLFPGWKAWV
Source text: as §1

kinases (kinome) [17] = target: T17, kinases (kinome) (Homo sapiens, UniProt P25440); conditions: BRD2 (Atypical), IPI00440502
T17 construct: determined in kinobeads assays with mass spectrometry detection of kinases as described previously; endogenous in cells; host or cells: cell lysate
T17 sequence (P25440 whole entry): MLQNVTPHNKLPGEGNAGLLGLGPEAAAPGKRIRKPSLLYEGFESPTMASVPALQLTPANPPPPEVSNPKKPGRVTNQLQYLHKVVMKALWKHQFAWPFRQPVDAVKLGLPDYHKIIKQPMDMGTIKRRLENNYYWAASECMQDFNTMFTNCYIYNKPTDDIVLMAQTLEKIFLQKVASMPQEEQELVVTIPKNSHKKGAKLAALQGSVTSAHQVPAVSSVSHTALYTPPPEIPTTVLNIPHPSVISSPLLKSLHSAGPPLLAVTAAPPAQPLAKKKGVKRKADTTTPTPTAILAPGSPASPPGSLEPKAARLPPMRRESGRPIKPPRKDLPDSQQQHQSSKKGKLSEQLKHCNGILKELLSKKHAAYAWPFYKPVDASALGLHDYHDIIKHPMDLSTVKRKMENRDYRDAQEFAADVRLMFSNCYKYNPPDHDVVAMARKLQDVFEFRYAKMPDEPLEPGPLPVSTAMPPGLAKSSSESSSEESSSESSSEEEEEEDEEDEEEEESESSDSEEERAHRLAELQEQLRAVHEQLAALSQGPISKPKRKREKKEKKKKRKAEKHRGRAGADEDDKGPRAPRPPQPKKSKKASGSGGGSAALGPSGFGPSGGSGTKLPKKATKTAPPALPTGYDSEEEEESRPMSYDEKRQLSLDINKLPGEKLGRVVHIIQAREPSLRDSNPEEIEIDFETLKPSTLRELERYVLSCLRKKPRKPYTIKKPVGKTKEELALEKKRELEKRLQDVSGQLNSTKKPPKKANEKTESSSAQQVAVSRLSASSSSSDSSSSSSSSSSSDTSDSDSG
Source text: as §1

kinases (kinome) [18] = target: T18, kinases (kinome) (Homo sapiens, UniProt Q14680); conditions: MELK (CAMK), IPI00006471
T18 construct: determined in kinobeads assays with mass spectrometry detection of kinases as described previously; endogenous in cells; host or cells: cell lysate
Source text: as §1

kinases (kinome) [19] = target: T19, kinases (kinome) (Homo sapiens, UniProt Q16539); conditions: p38a (CMGC), IPI00221141
T19 construct: determined in kinobeads assays with mass spectrometry detection of kinases as described previously; endogenous in cells; host or cells: cell lysate
T19 sequence (Q16539 whole entry): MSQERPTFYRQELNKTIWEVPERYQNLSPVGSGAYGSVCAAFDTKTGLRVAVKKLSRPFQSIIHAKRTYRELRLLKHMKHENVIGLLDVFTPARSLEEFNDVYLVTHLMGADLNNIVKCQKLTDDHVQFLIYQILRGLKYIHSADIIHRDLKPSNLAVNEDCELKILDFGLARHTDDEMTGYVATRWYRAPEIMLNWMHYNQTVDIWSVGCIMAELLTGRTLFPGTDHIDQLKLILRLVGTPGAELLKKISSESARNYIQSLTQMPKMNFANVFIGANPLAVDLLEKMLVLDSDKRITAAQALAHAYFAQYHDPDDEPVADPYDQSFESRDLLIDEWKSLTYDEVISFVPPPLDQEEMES
Source text: as §1

Measured: IC50

C[C@H]1COCCN1c1nc(-c2ccc(NC(=O)NC3CC3)cc2)cc(-c2cccnc2S(C)(=O)=O)n1 [Example 46, (S)-1-cyclopropyl-3-(4-(2-(3-methylmorpholino)-6-(2-(methylsulfonyl)pyridin-3-yl)pyrimidin-4-yl)phenyl)urea]
> 10 µM: all assays above

CCNC(=O)Nc1ccc(-c2cc(-c3ccccc3C#N)nc(N3CCOC[C@@H]3C)n2)cc1 [Example 8, (S)-1-(4-(6-(2-cyanophenyl)-2-(3-methylmorpholino)pyrimidin-4-yl)phenyl)-3-ethylurea]
> 10 µM: all assays above

C[C@H]1COCCN1c1nc(-c2ccc(NC(=O)NC3CC3)cc2)cc(-c2cc(F)ccc2S(C)(=O)=O)n1 [Example 40, (S)-1-cyclopropyl-3-(4-(6-(5-fluoro-2-(methylsulfonyl)phenyl)-2-(3-methylmorpholino)pyrimidin-4-yl)phenyl)urea]
> 10 µM: all assays above
